{"source": "patent US11066421B1", "about": "“Synthetic cinchona alkaloids against cancer” (Ares Pharmaceuticals, LLC, priority 2021, dated 2021)", "key": {"NALM-6": {"tested_on": "NALM-6", "test": "MTT cytotoxicity assay, NALM-6", "format": "cell-based, human", "conditions": "read-out: IC50 against NALM-6", "procedure": "(§1) Human B-lineage acute lymphoblastic leukemia (ALL) cell line NALM-6 and T-lineage ALL/lymphoma cell line MOLT-3 were obtained from American Type Culture Collection (Manassas, Va.). Cell lines were propagated in RPMI 1640 supplemented with 10% FCS, 4 mM glutamine, 100 units/ml penicillin G, and […] streptomycin sulfate. All tissue culture reagents were obtained from Life Technologies Inc. (Life Technologies, Inc., Gaithersburg, Md.). Cell lines were cultivated for a minimum of two passages after thawing prior to experimentation.\n(§2) The cytotoxicity of the compounds were tested against human ALL cell lines using MTT assays (Roche Molecular Biochemicals, Indianapolis, Ind.), as described previously R. K. Narla et al., 1998, Clin Cancer Res 4:1405-14). Briefly, exponentially growing tumor cells were seeded into a 96-well plate at a density of 4×10^4 cells/well and incubated in medium containing the cinchona alkaloid compounds at concentrations ranging from 0.7 to 100 μM for 48 h at 37° C. in a humidified 5% CO2 atmosphere. To each well, 10 μL of MTT (final concentration, 0.5 mg/ml) was added, and the plates were incubated at 37° C. for 4 h to allow MTT to form formazan crystals by reacting with metabolically active cells. The formazan crystals were solubilized overnight at 37° C. in a solution containing 10% SDS and 0.01 M HCl. The absorbance of each well was measured in a microplate reader (Labsystems) at 540 nm and a reference wavelength of 690 nm. To translate the A540 values into the number of live cells in each well, the A540 values were compared to those on standard A540 versus cell number curves generated for each cell line. The percentage of survival was calculated using the formula: % survival=[Live cell number (test)/Live cell number (control)]×100. The IC50 values were calculated by nonlinear regression analysis using the graphed Prism Software version 2.0 (GraphPad Software, Inc., San Diego, Calif.)."}, "MOLT-3": {"tested_on": "MOLT-3", "test": "MTT cytotoxicity assay, MOLT-3", "format": "cell-based, human", "conditions": "read-out: IC50 against MOLT-3", "procedure": "as §1, §2"}, "[1]": {"tested_on": "mammary tumors of MMTV/neu transgenic mice", "test": "MMTV/neu transgenic mouse model of HER2+ breast cancer", "format": "in vivo", "conditions": "9-week observation; for tumor shrinkage and tumor growth: AP-8 2 mg/kg i.p. twice daily, paclitaxel 6.7 mg/kg, gemcitabine 33.7 mg/kg; for prevention of tumor progression compared with AP-8: paclitaxel 6.7 mg/kg i.p., gemcitabine 33.7 mg/kg i.p.", "from_the_text": "The predictive value of genetically engineered mouse (GEM) models to predict the clinical effectiveness of anti-cancer drugs is well established (Richmond A, Su Y. Mouse xenograft models vs GEM models for human cancer therapeutics. Dis Model Mech. 2008; 1(2-3):78-82. doi:10.1241-2/dmm.0.000976). We used the transgenic mouse model of HER2+ chemotherapy-resistant breast cancer to examine the in vivo anti-cancer activity of AP-8. Overexpression of the wild type Neu in the mammary glands of transgenic mice induces metastatic breast cancer. Accordingly, in the MMTV/Neu transgenic strain, the wild-type neu is overexpressed in the mammary gland under the control of the MMTV long terminal repeat. This animal model has been used to analyze the efficacy of new therapeutic approaches to prevent or treat Her2/neu overexpressing malignancies (Uckun, Dibirdik). MMTV/Neu transgenic mice [FVB/N-TgN(MMTV/neu)202MUL; Jackson Laboratory, Bar Harbor, Me.] were bred to produce multiple litters in a controlled SPF environment (12 h light/12 h-dark photoperiod, 22±1° C., 60±10% relative humidity). All mice were housed in microisolator cages (Lab Products, Inc., Maywood, N.Y., USA) containing autoclaved bedding in a controlled specific pathogen-free (SPF) environment (12 h light/12 h-dark photoperiod, 22±1° C., 60±10% relative humidity). Animal studies were approved by the institutional Animal Care and Use Committee of Drug Discovery Enterprises and all animal care procedures conformed to the Guide for the Care and Use of Laboratory Animals of the National Research Council. The genotype of mice was confirmed by multiplex polymerase chain reaction (PCR) tests as previously reported (F. M. Uckun et al., 2007, Bioorganic Med. Chem. 15:800-14; I. Dibirdik et al., 2010, J Nanomed and Nanotechnol. 1:001-4).\nNeu transgenic mice carrying one or more tumors were randomly placed in the study. For the evaluation of tumor kinetics, tumor-bearing mice were randomly assigned to either vehicle control or treatment groups. Tumor growth was determined by the measurement of tumors with a caliper in three dimensions three days a week and expressed as tumor volume in cubic millimeters (mm^3). Tumor volumes were calculated using the formula for the volume of a prolate spheroid, V=4/3×3.14×length/2×width/2×depth/2. Due to the large heterogeneity in transgenic tumor volumes on day 0, tumor growth for each mouse was normalized to the starting volume for that particular tumor. Therefore, each mouse also served as its own control, and the tumor growth curves were generated to show the rate of change in tumor volumes.\nAP-8 (50 μg˜2 mg/kg in 50 μL DMSO as vehicle) (10 mice, 12 target mammary tumors, Initial average tumor volume=787±125 mm^3) was administered by twice daily intraperitoneal injections on 5 consecutive days per week. Paclitaxel (10 mice, 13 target mammary tumors, Initial average tumor volume=554±79 mm^3) was administered intraperitoneally on days 1, 3, and 5 of each week at a dose level of 6.7 mg/kg ([…]). Gemcitabine (13 mice, 18 target mammary tumors, Initial average tumor volume=549±60 mm^3) was administered intraperitoneally on days 1 and 8 every 4 weeks at a dose level of 33.7 mg/kg (˜1 g/m^2). Control mice (8 mice, 10 mammary tumors, Initial average tumor volume=293±61 mm^3) were treated by twice daily intraperitoneal injections of vehicle alone (50 μL DMSO) on 5 consecutive days per week. […]"}}, "note": "pIC50: −log10 of the molar value. Like-named read-outs stand apart in the source and are kept apart here."}
{"compound": "2,4,6-Tri (9-O-dihydrocinchonidinyl)pyrimidine [AP-6]", "values": [{"measurement": "pIC50", "setting": "NALM-6; 48 h", "result": 5.22}, {"measurement": "pIC50", "setting": "MOLT-3; 48 h", "result": 4.94}]}
{"compound": "2,4,6-Tri(9-O-cinchonidinyl)pyrimidine [AP-2]", "values": [{"measurement": "pIC50", "setting": "NALM-6; 48 h", "result": 4.94}, {"measurement": "pIC50", "setting": "MOLT-3; 48 h", "result": 5.24}]}
{"compound": "C=CC1CN2CCC1CC2C(Oc1cc(OC(c2ccnc3ccc(OC)cc23)C2CC3CCN2CC3C=C)nc(OC(c2ccnc3ccc(OC)cc23)C2CC3CCN2CC3C=C)n1)c1ccnc2ccc(OC)cc12", "note": "(single isomer, unassigned) [AP-3, 2,4,6-Tri(9-O-quininyl)pyrimidine]", "values": [{"measurement": "pIC50", "setting": "NALM-6; 48 h", "result": 5.44}, {"measurement": "pIC50", "setting": "MOLT-3; 48 h", "result": 5.35}]}
{"compound": "C=CC1CN2CCC1CC2C(Oc1cc(OC(c2ccnc3ccc(OC)cc23)C2CC3CCN2CC3C=C)nc(OC(c2ccnc3ccc(OC)cc23)C2CC3CCN2CC3C=C)n1)c1ccnc2ccc(OC)cc12", "note": "(single isomer, unassigned) [AP-4, 2,4,6-Tri (9-O-quinidinyl)pyrimidine]", "values": [{"measurement": "pIC50", "setting": "NALM-6; 48 h", "result": 5.55}, {"measurement": "pIC50", "setting": "MOLT-3; 48 h", "result": 5.51}]}
{"compound": "CC[C@@H]1CN2CCC1C[C@@H]2C(Oc1cc(O[C@@H](c2ccnc3ccc(OC)cc23)[C@@H]2CC3CCN2C[C@@H]3CC)nc(OC(c2ccnc3ccc(OC)cc23)[C@H]2CC3CCN2C[C@H]3CC)n1)c1ccnc2ccc(OC)cc12", "note": "(some centres unmarked) [AP-7, 2,4,6-Tri (9-O-dihydroquininyl)pyrimidine]", "values": [{"measurement": "pIC50", "setting": "NALM-6; Homo sapiens, NALM-6, 48 h", "result": 5.48}, {"measurement": "pIC50", "setting": "MOLT-3; Homo sapiens, MOLT-3, 48 h", "result": 5.46}]}
{"compound": "Nc1ccn([C@@H]2O[C@H](CO)[C@@H](O)C2(F)F)c(=O)n1", "note": "[gemcitabine, Gemcitabine]", "values": [{"measurement": "tumor shrinkage and tumor growth", "setting": "[1]", "result": "Neither paclitaxel nor gemcitabine at the clinically applicable dose levels used in these experiments induced tumor shrinkage"}, {"measurement": "prevention of tumor progression compared with AP-8", "setting": "[1]", "result": "less effective than AP-8 in preventing tumor progression"}]}
{"compound": "CC(=O)O[C@H]1C(=O)[C@@]2(C)[C@H]([C@H](OC(=O)c3ccccc3)[C@]3(O)C[C@H](OC(=O)[C@H](O)[C@@H](NC(=O)c4ccccc4)c4ccccc4)C(C)=C1C3(C)C)[C@]1(OC(C)=O)CO[C@@H]1C[C@@H]2O", "note": "[paclitaxel, Paclitaxel]", "values": [{"measurement": "tumor shrinkage and tumor growth", "setting": "[1]", "result": "Neither paclitaxel nor gemcitabine at the clinically applicable dose levels used in these experiments induced tumor shrinkage"}, {"measurement": "prevention of tumor progression compared with AP-8", "setting": "[1]", "result": "less effective than AP-8 in preventing tumor progression"}]}
